Active and inactive are the calls of the source. The calls are words filed in the database; no cut-off is given here.
What was measured:
Candida albicans [1] = assay: Synergistic antifungal activity against fluconazole-resistant Candida albicans 901 assessed as inhibition of fungal growth in presence of fluconazole by checker board microdilution assay; type: functional
Candida albicans [2] = assay: Synergistic antifungal activity against fluconazole-resistant Candida albicans 904 assessed as inhibition of fungal growth in presence of fluconazole by checker board microdilution assay; type: functional
Candida albicans [3] = assay: Synergistic antifungal activity against fluconazole-resistant Candida albicans 103 assessed as inhibition of fungal growth in presence of fluconazole by checker board microdilution assay; type: functional
Candida albicans [4] = assay: Synergistic antifungal activity against fluconazole-resistant Candida albicans 311 assessed as inhibition of fungal growth in presence of fluconazole by checker board microdilution assay; type: functional
Candida albicans [5] = assay: Antifungal activity against fluconazole-resistant Candida albicans 901 assessed as inhibition of fungal growth by checker board microdilution assay; type: functional
Candida albicans [6] = assay: Antifungal activity against fluconazole-resistant Candida albicans 904 assessed as inhibition of fungal growth by checker board microdilution assay; type: functional
Candida albicans [7] = assay: Antifungal activity against fluconazole-resistant Candida albicans 632 assessed as inhibition of fungal growth by checker board microdilution assay; type: functional
Candida albicans [8] = assay: Antifungal activity against fluconazole-resistant Candida albicans 100 assessed as inhibition of fungal growth by checker board microdilution assay; type: functional
Candida albicans [9] = assay: Antifungal activity against fluconazole-resistant Candida albicans 311 assessed as inhibition of fungal growth by checker board microdilution assay; type: functional
Candida albicans [10] = assay: Synergetic antifungal activity against fluconazole-resistant Candida albicans 632 assessed as fractional inhibitory concentration index in presence of fluconazole by checker board microdilution assay; type: functional
Candida albicans [11] = assay: Synergetic antifungal activity against fluconazole-resistant Candida albicans 100 assessed as fractional inhibitory concentration index in presence of fluconazole by checker board microdilution assay; type: functional
Candida albicans [12] = assay: Synergetic antifungal activity against fluconazole-resistant Candida albicans 103 assessed as fractional inhibitory concentration index in presence of fluconazole by checker board microdilution assay; type: functional
A549 = assay: Cytotoxicity against human A549 cell assessed as inhibition of cell growth after 24 hrs by MTT assay; type: functional, cell-based; settings: A549, 24 h
MCF7 = assay: Cytotoxicity against human MCF7 cell assessed as inhibition of cell growth after 24 hrs by MTT assay; type: functional, cell-based; settings: MCF7, 24 h
HepG2 = assay: Cytotoxicity against human HepG2 cell assessed as inhibition of cell growth after 24 hrs by MTT assay; type: functional, cell-based; settings: HepG2, 24 h
[13] = Cytotoxicity against human THLE-2 cell assessed as inhibition of cell growth after 24 hrs by MTT assay; type: toxicity, cell-based; settings: THLE-2 cells
[14] = Cytotoxicity against human BEAS-2B cell assessed as inhibition of cell growth after 24 hrs by MTT assay; type: toxicity, cell-based; settings: BEAS-2B cells
[15] = Cytotoxicity against mouse NIH3T3 cell assessed as inhibition of cell growth after 24 hrs by MTT assay; type: toxicity, cell-based; settings: NIH3T3 cells
[16] = Cytotoxicity against mouse BV-2 cell assessed as inhibition of cell growth after 24 hrs by MTT assay; type: toxicity, cell-based; settings: BV-2 cells
Candida albicans [17] = assay: Synergistic antibiofilm activity against Candida albicans 904 assessed as inhibition of […] metabolism within the biofilm in presence of fluconazole after 24 hrs by XTT reduction assay; type: functional
Candida albicans [18] = assay: Synergistic antibiofilm activity against Candida albicans 904 assessed as inhibition of […] metabolism within the biofilm in presence of fluconazole after 48 hrs by XTT reduction assay; type: functional
Candida albicans [19] = assay: Antibiofilm activity against Candida albicans 904 assessed as inhibition of […] metabolism within the biofilm after 24 hrs by XTT reduction assay; type: functional
Candida albicans [20] = assay: Synergistic antibiofilm activity in Candida albicans 904 assessed as downregulation of EFG1 at 32 ug/ml incubated for 24 hrs in presence of fluconazole by RT-PCR analysis; type: functional, organism-based; settings: dose 32.0 µg/ml
Candida albicans [21] = assay: Synergistic antibiofilm activity in Candida albicans 904 assessed as downregulation of TEC1 at 32 ug/ml incubated for 24 hrs in presence of fluconazole by RT-PCR analysis; type: functional, organism-based; settings: dose 32.0 µg/ml
Candida albicans [22] = assay: Synergistic antibiofilm activity in Candida albicans 904 assessed as downregulation of CPH1 at 32 ug/ml incubated for 24 hrs in presence of fluconazole by RT-PCR analysis; type: functional, organism-based; settings: dose 32.0 µg/ml
Candida albicans [23] = assay: Fungicidal activity against Candida albicans 904 assessed as colony forming at 4 times MIC incubated for 48 hrs by time-kill curve assay; type: functional
Candida albicans [24] = assay: Fungicidal activity against Candida albicans 904 assessed as colony forming at 4 times MIC in presence of fluconazole incubated for 48 hrs by time-kill curve assay; type: functional
Candida albicans [25] = assay: Ratio of MFC for Candida albicans 904 to MIC for Candida albicans 904 in presence of fluconazole; type: functional
[26] = Metabolic stability in human liver microsomes assessed as half life in presence of NADPH cofactor under shaking condition for 10 mins measured after 5 to 60 mins by LC-MS/MS analysis; type: ADME, Microsome; settings: time 15-70 min
[27] = Metabolic stability in human liver microsomes assessed as microsomal intrinsic clearance in presence of NADPH cofactor under shaking condition for 10 mins measured after 5 to 60 mins by LC-MS/MS analysis; type: ADME, Microsome; settings: time 15-70 min
[28] = Metabolic stability in human liver microsomes assessed as compound remaining in presence of NADPH cofactor under shaking condition for 10 mins measured after 60 mins by LC-MS/MS analysis; type: ADME, Microsome; settings: time 70 min, read-out: Stability
CYP2C9 = CYP2C9 (Homo sapiens, UniProt P11712); assay: Inhibition of CYP2C9 in human liver microsome at 10 uM using diclofenac as substrate incubated for 10 mins in presence of NADPH cofactor by LC-MS/MS analysis; type: ADME; settings: liver microsomes, probe diclofenac
CYP2C9, sequence (P11712 whole entry): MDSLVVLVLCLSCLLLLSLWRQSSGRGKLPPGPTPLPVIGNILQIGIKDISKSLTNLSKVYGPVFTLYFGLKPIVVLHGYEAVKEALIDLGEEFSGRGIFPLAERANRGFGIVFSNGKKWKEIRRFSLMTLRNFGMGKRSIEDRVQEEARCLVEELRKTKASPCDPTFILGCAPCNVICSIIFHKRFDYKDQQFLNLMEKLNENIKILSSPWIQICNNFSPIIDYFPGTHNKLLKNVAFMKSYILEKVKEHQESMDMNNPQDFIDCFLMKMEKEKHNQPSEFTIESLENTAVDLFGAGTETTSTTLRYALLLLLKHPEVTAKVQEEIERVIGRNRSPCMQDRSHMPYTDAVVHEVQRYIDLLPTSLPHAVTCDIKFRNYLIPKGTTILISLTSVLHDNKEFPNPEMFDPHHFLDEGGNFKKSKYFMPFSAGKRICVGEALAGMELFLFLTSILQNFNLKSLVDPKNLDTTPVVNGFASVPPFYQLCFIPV

CYP2D6 = CYP2D6 (Homo sapiens, UniProt P10635); assay: Inhibition of CYPD6 in human liver microsome at 10 uM using dextromethorphan as substrate incubated for 10 mins in presence of NADPH cofactor by LC-MS/MS analysis; type: ADME; settings: liver microsomes, probe dextromethorphan
CYP2D6, sequence (P10635 whole entry): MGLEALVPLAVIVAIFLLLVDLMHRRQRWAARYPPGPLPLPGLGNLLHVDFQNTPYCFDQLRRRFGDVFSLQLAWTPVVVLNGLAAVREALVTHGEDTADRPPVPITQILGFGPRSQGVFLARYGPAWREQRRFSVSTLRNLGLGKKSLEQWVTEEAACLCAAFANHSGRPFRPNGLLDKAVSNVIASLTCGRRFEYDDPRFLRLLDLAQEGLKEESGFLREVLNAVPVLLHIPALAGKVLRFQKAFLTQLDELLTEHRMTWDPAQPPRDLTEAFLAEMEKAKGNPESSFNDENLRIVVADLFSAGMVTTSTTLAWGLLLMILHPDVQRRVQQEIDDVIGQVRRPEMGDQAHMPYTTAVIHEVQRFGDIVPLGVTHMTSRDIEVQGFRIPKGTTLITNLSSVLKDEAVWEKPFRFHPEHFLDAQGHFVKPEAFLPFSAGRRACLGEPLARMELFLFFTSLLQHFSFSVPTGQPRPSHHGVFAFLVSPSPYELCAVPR

CYP3A4 = CYP3A4 (Homo sapiens, UniProt P08684); assay: Inhibition of CYP3A4 in human liver microsome at 10 uM using midazolam as substrate incubated for 10 mins in presence of NADPH cofactor by LC-MS/MS analysis; type: ADME; settings: liver microsomes, probe midazolam
CYP3A4, sequence (P08684 whole entry): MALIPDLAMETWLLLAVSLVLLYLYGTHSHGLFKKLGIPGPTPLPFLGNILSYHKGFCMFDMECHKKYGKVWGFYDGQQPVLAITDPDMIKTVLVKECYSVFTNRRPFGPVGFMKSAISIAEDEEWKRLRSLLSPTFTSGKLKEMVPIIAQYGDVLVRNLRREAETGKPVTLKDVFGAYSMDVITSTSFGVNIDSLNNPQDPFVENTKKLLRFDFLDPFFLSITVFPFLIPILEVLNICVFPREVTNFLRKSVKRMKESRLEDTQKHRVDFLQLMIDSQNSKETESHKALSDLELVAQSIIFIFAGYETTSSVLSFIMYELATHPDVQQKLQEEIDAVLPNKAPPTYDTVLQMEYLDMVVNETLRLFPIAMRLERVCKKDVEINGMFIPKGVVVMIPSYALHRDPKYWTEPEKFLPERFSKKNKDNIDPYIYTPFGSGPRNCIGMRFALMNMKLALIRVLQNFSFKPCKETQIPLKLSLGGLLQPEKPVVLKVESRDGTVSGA

Candida albicans [29] = assay: Induction of morphological changes in Candida albicans 904 assessed as hyphal formation by measuring CPH1 level incubated for 4 hrs in presence of fluconazole; type: functional, organism-based
Candida albicans [30] = assay: Induction of morphological changes in Candida albicans 904 assessed as hyphal formation by measuring TEC1 level incubated for 4 hrs in presence of fluconazole; type: functional, organism-based
Candida albicans [31] = assay: Potentiation of fluconazole-induced antifungal activity against fluconazole-resistant Candida albicans 901 assessed as fluconazole MIC by checker board microdilution assay; type: functional
Candida albicans [32] = assay: Potentiation of fluconazole-induced antifungal activity against fluconazole-resistant Candida albicans 632 assessed as fluconazole MIC by checker board microdilution assay; type: functional
Candida albicans [33] = assay: Potentiation of fluconazole-induced antifungal activity against fluconazole-resistant Candida albicans 100 assessed as fluconazole MIC by checker board microdilution assay; type: functional
Candida albicans [34] = assay: Potentiation of fluconazole-induced antifungal activity against fluconazole-resistant Candida albicans 103 assessed as fluconazole MIC by checker board microdilution assay; type: functional
Candida albicans [35] = assay: Potentiation of fluconazole-induced antifungal activity against fluconazole-resistant Candida albicans 311 assessed as fluconazole MIC by checker board microdilution assay; type: functional

CCNC(=O)c1noc(-c2cc(-c3ccc(C)cc3)c(O)cc2O)c1-c1ccc(CN2CCOCC2)cc1
MIC80 (Candida albicans [1]): 0.125 µg/mL | MIC80 (Candida albicans [2]): 0.25 µg/mL | MIC80 (Candida albicans [3]): 0.25 µg/mL | MIC80 (Candida albicans [4]): 0.25 µg/mL | MIC80 (Candida albicans [5]): > 64 µg/mL | MIC80 (Candida albicans [6]): > 64 µg/mL | MIC80 (Candida albicans [7]): > 64 µg/mL | MIC80 (Candida albicans [8]): > 64 µg/mL | MIC80 (Candida albicans [9]): > 64 µg/mL | fractional inhibitory concentration index (FICI) (Candida albicans [10]): 0.033 | fractional inhibitory concentration index (FICI) (Candida albicans [11]): 0.033 | fractional inhibitory concentration index (FICI) (Candida albicans [12]): 0.035 | IC50 (A549): 13.1 µM | IC50 (MCF7): 34.1 µM | IC50 (HepG2): 17.4 µM | IC50 at 24 h [13]: 7.15 µM | IC50 at 24 h [14]: > 50 µM | IC50 at 24 h [15]: 21.3 µM | IC50 at 24 h [16]: 10.3 µM | MIC50 (Candida albicans [17]): 0.25 µg/mL | MIC50 (Candida albicans [18]): 1 µg/mL | MIC50 (Candida albicans [19]): > 64 µg/mL | Activity (Candida albicans [20]): Active | Activity (Candida albicans [21]): Active | Activity (Candida albicans [22]): Active | MFC (Candida albicans [23]): > 64 µg/mL | MFC (Candida albicans [24]): 0.25 µg/mL | Ratio (Candida albicans [25]): 1 | half-life [26]: 32.1 min | CLint [27]: 43.2 µL/min/mg | remaining at 1.167 h [28]: 27.4% | inhibition at 10 min, 10 µM (CYP2C9): 36.5% | inhibition at 10 min, 10 µM (CYP2D6): 36.9% | inhibition at 10 min, 10 µM (CYP3A4): 36.7% | Activity (Candida albicans [29]): Active | Activity (Candida albicans [30]): Active | MIC80 (Candida albicans [31]): 1 µg/mL | MIC80 (Candida albicans [32]): 2 µg/mL | MIC80 (Candida albicans [33]): 2 µg/mL | MIC80 (Candida albicans [34]): 2 µg/mL | MIC80 (Candida albicans [35]): 2 µg/mL

CNC(=O)c1noc(-c2cc(-c3ccc(C)cc3)c(O)cc2O)c1-c1ccc(CN2CCOCC2)cc1
MIC80 (Candida albicans [1]): 0.5 µg/mL | MIC80 (Candida albicans [2]): 0.25 µg/mL | MIC80 (Candida albicans [3]): 1 µg/mL | MIC80 (Candida albicans [4]): 2 µg/mL | MIC80 (Candida albicans [5]): > 64 µg/mL | MIC80 (Candida albicans [6]): > 64 µg/mL | MIC80 (Candida albicans [7]): > 64 µg/mL | MIC80 (Candida albicans [8]): > 64 µg/mL | MIC80 (Candida albicans [9]): > 64 µg/mL | fractional inhibitory concentration index (FICI) (Candida albicans [10]): 0.016 | fractional inhibitory concentration index (FICI) (Candida albicans [11]): 0.035 | fractional inhibitory concentration index (FICI) (Candida albicans [12]): 0.047 | IC50 (A549): 7.12 µM | IC50 (MCF7): 21.5 µM | IC50 (HepG2): > 50 µM | IC50 at 24 h [13]: 10.6 µM | IC50 at 24 h [14]: 12.2 µM | IC50 at 24 h [15]: 8.63 µM | IC50 at 24 h [16]: 11.1 µM | MIC50 (Candida albicans [17]): 1 µg/mL | MIC50 (Candida albicans [18]): 4 µg/mL | MIC50 (Candida albicans [19]): > 64 µg/mL | Activity (Candida albicans [20]): Active | Activity (Candida albicans [21]): Active | Activity (Candida albicans [22]): Active | MFC (Candida albicans [23]): > 64 µg/mL | MFC (Candida albicans [24]): 0.5 µg/mL | Ratio (Candida albicans [25]): 2 | half-life [26]: 24.8 min | CLint [27]: 55.9 µL/min/mg | remaining at 1.167 h [28]: 19.1% | inhibition at 10 min, 10 µM (CYP2C9): 25.2% | inhibition at 10 min, 10 µM (CYP2D6): 86.3% | inhibition at 10 min, 10 µM (CYP3A4): 43.2% | Activity (Candida albicans [29]): Active | Activity (Candida albicans [30]): Active | MIC80 (Candida albicans [31]): 2 µg/mL | MIC80 (Candida albicans [32]): 0.5 µg/mL | MIC80 (Candida albicans [33]): 2 µg/mL | MIC80 (Candida albicans [34]): 2 µg/mL | MIC80 (Candida albicans [35]): 2 µg/mL

— ChEMBL document CHEMBL5154804, “Species-Selective Targeting of Fungal Hsp90: Design, Synthesis, and Evaluation of Novel 4,5-Diarylisoxazole Derivatives for the Combination Treatment of Azole-Resistant Candidiasis” (J Med Chem, 2022)
